Measured values: patent US12172946B2, “Compound containing diphenylmethane structure and use thereof” (GUANGZHOU TROJAN PHARMATEC LTD., priority 2019, dated 2024)

Assay: solubility of the compound in common solvents
Assay type: physicochemical
Conditions: 25-30° C.; for solubility in DMF: N,N-dimethylformamide; for solubility in i-PrOAc: isopropyl acetate; for solubility in MTBE: methyl tert-butyl ether
Protocol: The solubility of the compound of the present invention in common solvents was investigated (25-30° C.), and the results are shown in Table 1. It can be seen from Table 1 that the compound of the present invention has good solubility in all of heptane, isopropyl acetate (i-PrOAc), methyl tert-butyl ether (MTBE) and N,N-dimethylformamide (DMF), and particularly, the solubility in N,N-dimethylformamide is much higher than Comparative Examples.

Compound	solubility in DMSO	solubility in MeOH	solubility in DMF	solubility in Heptane	solubility in i-PrOAc	solubility in MTBE
4,4′-di(2-(2-(3,4,5-tris(2,3-dihydrophytoxy)-benzamido)-ethoxy)-ethoxy)-benzhydrylamine [DPA-004]	<1%	<1%	>1%	>50%	>100%	>100%
4,4′-di((5-(3,4,5-tris(isononyloxy)-benzamido)-2-one-3-aza-hexyl)oxy)-benzhydrylamine [DPA-009]	<1%	<1%	>30%	>10%	>25%	>30%
4-(2-(2-(3,4,5-tri(octa/decy/dodecyloxy)-benzamido)-ethoxy)-ethoxy)-benzhydrylamine [DPA-024]	<1%	<1%	>30%	>50%	>100%	>100%
4-(2-(2-(3,4,5-tris(isomeric decyloxy)-benzamido)-ethoxy)-ethoxy)-benzhydrylamine [DPA-006]	<1%	<1%	>100%	>100%	>100%	>100%
CC(C)CCCCCOc1cc(C(=O)NCCOCCOc2ccc(C(N)c3ccc(OCCOCCNC(=O)c4cc(OCCCCCC(C)C)c(OCCCCCC(C)C)c(OCCCCCC(C)C)c4)cc3)cc2)cc(OCCCCCC(C)C)c1OCCCCCC(C)C [DPA-001, 4,4′-di(2-(2-(3,4,5-tris(isooctyloxy)-benzamido)-ethoxy)-ethoxy) benzhydrylamine]	<1%	<1%	>20%	>25%	>30%	>30%
CCCCCCCCCCCCCOc1cc(C(=O)NCCOCCOc2ccc(C(N)c3ccc(OCCOCCNC(=O)c4cc(OCCCCCCCCCCCCC)c(OCCCCCCCCCCCCC)c(OCCCCCCCCCCCCC)c4)cc3)cc2)cc(OCCCCCCCCCCCCC)c1OCCCCCCCCCCCCC [DPA-003, 4,4′-di(2-(2-(3,4,5-tris(isomeric tridecyloxy)-benzamido)-ethoxy)-ethoxy)-benzhydrylamine]	<1%	<1%	>20%	>50%	>100%	>100%
CCCCCCCCCCCCCOc1cc(C(=O)NCCOCCOc2ccc(C(N)c3ccccc3)cc2)cc(OCCCCCCCCCCCCC)c1OCCCCCCCCCCCCC (stereo not drawn) [DPA-007, 4-(2-(2-(3,4,5-tris(isomeric tridecyloxy)-benzamido)-ethoxy)-ethoxy)-benzhydrylamine]	<1%	<1%	>100%	>100%	>100%	>100%
CC(C)CCCCCCOc1cc(C(=O)NCCOCCOc2ccc(C(N)c3ccc(Cl)cc3)cc2)cc(OCCCCCCC(C)C)c1OCCCCCCC(C)C (stereo not drawn) [DPA-011, 4-(2-(2-(3,4,5-tris(isononyloxy)-benzamido)-ethoxy)-ethoxy)-4′-chloro-benzhydrylamine]	<1%	<1%	>150%	>100%	>100%	>50%
CCCCCCCCCCCCCOc1ccc(CC(=O)NCCOCCOc2ccc(C(N)c3ccccc3)cc2)cc1OCCCCCCCCCCCCC (stereo not drawn) [DPA-013, 4-(2-(2-(3,4-di(isomeric tridecyloxy)-phenylacetamido)-ethoxy)-ethoxy)-benzhydrylamine]	<1%	<1%	>50%	>50%	>70%	>50%
CC(C)CCCCCCCCCCCCCCC(=O)NCCCCC(NC(=O)CCCCCCCCCCCCCCC(C)C)C(=O)NCCOCCOc1ccc(C(N)c2ccccc2)cc1 (stereo not drawn) [DPA-014, 4-(2-(2-(2,6-diisostearamido-hexanamido)-ethoxy)-ethoxy)-benzhydrylamine]	<10%	<10%	>40%	>30%	>50%	>50%
CCCCCCCCCCCCCOc1cc(C(=O)NCCCC(=O)NCCOCCOc2ccc(C(N)c3ccccc3)cc2)cc(OCCCCCCCCCCCCC)c1OCCCCCCCCCCCCC (stereo not drawn) [DPA-015, 4-(2-(2-(4-(3,4,5-tri(isomeric tridecyloxy)-benzamido)-butyrylamido)-ethoxy)-ethoxy)-benzhydrylamine]	<1%	<1%	>100%	>50%	>100%	>100%
CCCCCCCCCCCCCOc1cc(C(=O)NCCCCC(NC(=O)c2cc(OCCCCCCCCCCCCC)c(OCCCCCCCCCCCCC)c(OCCCCCCCCCCCCC)c2)C(=O)NCCOCCOc2ccc(C(N)c3ccccc3)cc2)cc(OCCCCCCCCCCCCC)c1OCCCCCCCCCCCCC (stereo not drawn) [DPA-017]	<5%	<5%	>100%	>100%	>100%	>100%
CC(CCC(C(=O)NCCOCCOc1ccc(C(N)c2ccc(OCCOCCNC(=O)C(CCC(C)CC(C)(C)C)C(C)CC(C)(C)C)cc2)cc1)C(C)CC(C)(C)C)CC(C)(C)C (stereo not drawn) [DPA-018, 4,4′-di(2-(2-(isostearamido)-ethoxy)-ethoxy)-benzhydrylamine]	<5%	<10%	>100%	>5%	>100%	>100%
CC(CCC(C(=O)N(CCOCCOc1ccc(C(N)c2ccccc2)cc1)Cc1ccccc1)C(C)CC(C)(C)C)CC(C)(C)C (stereo not drawn) [DPA-019]	<5%	<10%	>50%	>50%	>100%	>100%
CC(CCC(C(=O)N(CCOCCOc1ccc(C(N)c2ccc(OCCOCCN(Cc3ccccc3)C(=O)C(CCC(C)CC(C)(C)C)C(C)CC(C)(C)C)cc2)cc1)Cc1ccccc1)C(C)CC(C)(C)C)CC(C)(C)C (stereo not drawn) [DPA-020]	<5%	<5%	>100%	>100%	>100%	>100%
CCCCCCCCCCCCOc1cc(C(=O)NCCOCCOc2ccc(C(N)c3ccccc3)cc2)cc(OCCCCCCCCCCCC)c1OCCCCCCCCCCCC (stereo not drawn) [DPA-023, 4-(2-(2-(3,4,5-tri(n-dodecyloxy)-benzamido)-ethoxy)-ethoxy)-benzhydrylamine]	<5%	<5%	>30%	>50%	>50%	>50%
CCCCCCCCCCCCCOc1cc(C(=O)N(C)CCOc2ccc(C(N)c3ccccc3)cc2)cc(OCCCCCCCCCCCCC)c1OCCCCCCCCCCCCC (stereo not drawn) [DPA-026, 4-(2-(N′-methy-3,4,5-tri(isomeric tridecyloxy)-benzamido)-ethoxy)-benzhydrylamine]	<1%	<1%	>100%	>50%	>100%	>100%
CCCCCCCCCCCCCOc1ccc(CN(CCOCCOc2ccc(C(N)c3ccccc3)cc2)C(C)=O)cc1OCCCCCCCCCCCCC (stereo not drawn) [DPA-027]	<1%	<1%	>75%	>50%	>75%	>75%
CCCCCCCCCCCCCOc1ccc(CN(CCOCCOc2ccc(C(N)c3ccccc3)cc2)C(=O)CC(C)CC(C)(C)C)cc1OCCCCCCCCCCCCC (stereo not drawn) [DPA-028]	<1%	<1%	>100%	>100%	>100%	>100%
CCCCCCCCCCCCCOc1ccc(CN(CCOCCOc2ccc(C(N)c3ccccc3)cc2)C(=O)c2cc(OCCCCCCCCC)c(OCCCCCCCCC)c(OCCCCCCCCC)c2)cc1OCCCCCCCCCCCCC (stereo not drawn) [DPA-029]	<1%	<1%	>100%	>100%	>100%	>100%
CCCCCCCCCCCCCOc1ccc(CN(CC(=O)NCCOCCOc2ccc(C(N)c3ccccc3)cc2)C(=O)CC(C)CC(C)(C)C)cc1OCCCCCCCCCCCCC (stereo not drawn) [DPA-030, 4-(2-(2-(2-(N″-3,4-di(isomeric tridecyloxy)-benzyl)-isononanoamido)-acetamido)-ethoxy)-ethoxy-benzhydrylamine]	<1%	<1%	>40%	>40%	>40%	>40%
CCCCCCCCCCCCCOc1ccc(CN(CC(=O)NCCOCCOc2ccc(C(N)c3ccccc3)cc2)C(=O)c2cc(OCCCCCCCCC)c(OCCCCCCCCC)c(OCCCCCCCCC)c2)cc1OCCCCCCCCCCCCC (stereo not drawn) [DPA-031, 4-(2-(2-(2-(N″-3,4-di(isomeric tridecyloxy)-benzyl)-3,4,5-tri(isononyloxy)-benzamido)-acetamido)-ethoxy)-ethoxy-benzhydrylamine]	<1%	<1%	>100%	>50%	>100%	>100%
